According to US20070098800A1, “Therapeutic compositions” (priority 2002, published 2007):

Tests used:
[1] = tested on: experimental model of arthritis created by injecting ovalbumin into the knees of rabbits; assay: Ovalbumin-induced arthritis (chronic synovitis) in rabbit knees: joint swelling, ovalbumin antibody titers, histological joint damage; assay type: in vivo; details: compared to vehicle controls, during the 3-week period (Example 1)
Protocol: (§1) At 3-day intervals over a 3-week period, joint swelling (circumference) is assessed, synovial fluid samples (25 μl) are collected for analysis of salicylate and betamethasone concentrations, and venous blood samples (0.5 ml) are collected for analysis of salicylate and betamethasone serum concentrations and ovalbumin antibody titers. At the end of 3 weeks the animals are sacrificed for histological assessment of joint damage.
as §1, with “(circumference) was” for “(circumference) is”, “μl) were” for “μl) are”, “and lidocaine” for “and betamethasone”, “ml) were” for “ml) are”, “animals were” for “animals are”
as §1, with “morphine” for “betamethasone”, “damage. […]” for “damage.”

[2] = Synovial fluid and serum drug concentrations after single i.a. injection in arthritic rabbits; details: rabbit, single 0.1 ml i.a. injection
Protocol: as §1
as §1, with “(circumference) was” for “(circumference) is”, “μl) were” for “μl) are”, “and lidocaine” for “and betamethasone”, “ml) were” for “ml) are”, “animals were” for “animals are”
as §1, with “morphine” for “betamethasone”
as §1, with “μl) were” for “μl) are”, “of salicylate, lidocaine,” for “of salicylate”, “and morphine” for “and betamethasone”

[3] = sampled at 3-day intervals over 3 weeks

| Compound | joint swelling [1] | serum ovalbumin antibody titers [1] | betamethasone levels (synovial fluid and serum) ([2]; after the early time points) | betamethasone levels in serum ([2]; early time points) | betamethasone levels in synovial fluid ([2]; early time points) | morphine serum levels [2, 3] | morphine synovial fluid levels [2, 3] |
| --- | --- | --- | --- | --- | --- | --- | --- |
| C[C@H]1C[C@H]2[C@@H]3CCC4=CC(=O)C=C[C@]4(C)[C@@]3(F)[C@@H](O)C[C@]2(C)[C@@]1(O)C(=O)COP(=O)([O-])[O-].[Na+].[Na+] [betamethasone, betamethasone sodium phosphate] | significantly reduced | significantly reduced | undetectable | low | low | – | – |
| CN1CC[C@]23c4c5ccc(O)c4O[C@H]2[C@@H](O)C=C[C@H]3[C@H]1C5.O=S(=O)(O)O [morphine, morphine sulfate] | – | – | – | – | – | undetectable | undetectable |
